Assay results: article PMC5830590 (British Journal of Cancer, 2018)
Entries after “also recorded” stand apart in the source; their conditions may differ.

How the values were obtained:
[1] = tested on: patients with advanced malignancies; assay: Adverse events; assay type: in vivo, human
[2] = tested on: patients with advanced malignancies; assay: Dose escalation; assay type: in vivo, human
[3] = Plasma pharmacokinetics on cycle 1, day 1; assay type: in vivo, human
[4] = Urinary excretion up to 25 h after start of copanlisib infusion; assay type: in vivo, human; settings: 25 h urine collection interval; expansion cohort
[5] = tested on: advanced or refractory solid tumours; assay: Tumour response by RECIST version 1.1; assay type: in vivo, human
[6] = tested on: multidrug and toxin extrusion protein 2K (MATE2-K); settings: in vitro; no reference given; cited from earlier work
PIK3CA-mutated cells = settings: preclinical studies; ref Liu et al, 2013; cited from earlier work
[7] = tested on: class I PI3K (PI3K-δ and PI3K-α isoforms); settings: pan-class I PI3K inhibitor; ref Liu et al, 2013; Haike et al, 2014; cited from earlier work
[8] = tested on: patients with chronic lymphocytic leukaemia, small lymphocytic lymphoma and indolent non-Hodgkin’s lymphomas; settings: ref US Food and Drug Administration, 2016; cited from earlier work

## COc1c(OCCCN2CCOCC2)ccc2c1N=C(NC(=O)c1cnc(N)nc1)N1CCN=C21 [copanlisib]
[1]; all 50 patients
  TEAE any grade: decreased platelet count: 80%
  TEAE any grade: fatigue: 76%
  TEAE any grade: hyperglycaemia: 80%
  TEAE any grade: nausea: 86%
  copanlisib-related TEAE: anaemia: 42%
  copanlisib-related TEAE: anorexia: 56%
  copanlisib-related TEAE: decreased neutrophil count: 62%
  copanlisib-related TEAE: decreased platelet count: 58%
  copanlisib-related TEAE: fatigue: 66%
  copanlisib-related TEAE: hyperglycaemia: 76%
  copanlisib-related TEAE: hypertension: 46%
  copanlisib-related TEAE: nausea: 74%
  copanlisib-related TEAE: vomiting: 36%
  deaths considered related to study treatment: No deaths
  grade ⩾3 TEAE: decreased neutrophil count: 62%
  grade ⩾3 TEAE: decreased platelet count: 38%
  grade ⩾3 TEAE: fatigue: 22%
  grade ⩾3 TEAE: hyperglycaemia: 24%
  grade ⩾3 TEAE: hypertension: 42%
  grade ⩾3 copanlisib-related AE: decreased neutrophil count: 48%
  grade ⩾3 copanlisib-related AE: decreased platelet count: 28%
  grade ⩾3 copanlisib-related AE: hypertension: 38%
  patients who received insulin as remedial drug therapy: 14 patients
[1]; all 50 patients, 26 patients
  dose modification because of copanlisib-related TEAEs: 52%
  serious AE: 52%
[1]; all 50 patients, 45 patients
  dose modifications (interruption or dose reduction) for copanlisib, gemcitabine or cisplatin due to TEAEs: 90%
[1]; all 50 patients, eleven patients
  at least one serious copanlisib-related AE: 22%
[1]; all 50 patients, four patients
  serious AE: abdominal pain: 8%
[1]; all 50 patients, nine patients
  permanently discontinued copanlisib because of TEAEs: 18%
[1]; all 50 patients, one patient
  serious copanlisib-related AE: grade 4 sinus tachycardia and grade 4 sepsis: 2%
[1]; all 50 patients, six patients
  serious AE: lung infection: 12%
[1]; all 50 patients, ten patients
  TEAE of grade 3 hyperglycaemia: 20%
[1]; all 50 patients, three patients
  serious AE: dehydration: 6%
[1]; all 50 patients, two patients
  TEAE of grade 4 hyperglycaemia: 4%
  grade 4 serious TEAE: sepsis: 4%
[1]; all patients
  patients with infusion-related increases in plasma glucose and plasma insulin: ~80%
[1]; patients treated with copanlisib plus cisplatin, data not shown
  signs of increased nephrotoxicity caused by intrarenal accumulation of cisplatin: no signs of increased nephrotoxicity
[2]; cisplatin 25 mg m^−2 + gemcitabine 1000 mg m^−2, days 1 and 8 of a 21-day cycle
  RP2D of copanlisib in combination with CisGem: 0.8 mg/kg
[2]; gemcitabine 1000 mg m^−2, days 1, 8 and 15 of a 28-day cycle
  RP2D of copanlisib in combination with gemcitabine: 0.8 mg/kg
[3]; dose range 0.6–0.8 mg kg^−1
  dose dependence of plasma exposure (Cmax and AUC): nearly dose-proportional increase
[3]; human, plasma, intravenous
  half-life: 1500 to 1560 min
[3]; in vivo
  effect of co-administration of CisGem on plasma exposure (Cmax and AUC(0–25)): No substantial differences; also recorded: no influence
[4]
  amount excreted into urine, % of dose: about 4.9%
[5]; 4 out of 11 patients
  response rate in patients with BTC who had not received prior anti-cancer therapy: 36%
[5]; 12 patients
  response in patients with BTC who had received prior CisGem or gemcitabine-containing chemotherapy: No response
[5]; all 50 patients, all cohorts
  objective response rate overall: 10%
[5]; all 50 patients, 19 patients
  stable disease, patients: 38%
[5]; all 50 patients, four patients
  partial response, patients: 8%
[5]; all 50 patients, one patient
  complete response, patients: 2%
[6]
  inhibition of MATE2-K: strong inhibitor
PIK3CA-mutated cells
  anti-tumour activity in PIK3CA-mutated cells: anti-tumour activity
[7]
  PI3K isoform selectivity: predominant activity against PI3K-δ and PI3K-α isoforms

## Nc1ccn([C@@H]2O[C@H](CO)[C@@H](O)C2(F)F)c(=O)n1 [gemcitabine, reference compound]
[3]; in vivo
  influence of co-administration with copanlisib on PK: not influenced

## CC[C@H](Nc1ncnc2[nH]cnc12)c1nc2cccc(F)c2c(=O)n1-c1ccccc1 [idelalisib]
[8]
  rate of AEs in combination with other anti-cancer therapies: increased rate of AEs, including deaths

## COc1c(OCCCN2CCOCC2=O)ccc2c3n(c(=NC(=O)c4cnc(N)nc4)nc12)CCN3 [M-1]
[3]; copanlisib 0.8 mg kg^−1, cycle 1, day 1
  median tmax of M-1, range across cohorts: 2 to 4 h
[3]; in vivo
  effect of co-administration of CisGem on plasma exposure (Cmax and AUC(0–25)): no influence
  estimated geometric mean terminal half-life of M-1 versus copanlisib: comparable with that of copanlisib
[4]
  amount excreted into urine, % of dose: ~0.9%

## O=c1ccn([C@@H]2O[C@H](CO)[C@@H](O)C2(F)F)c(=O)[nH]1 [dFdU, 2’,2’-difluorodeoxyuridine]
[3]; in vivo
  influence of co-administration with copanlisib on PK: not influenced
